# From US20240174634A1, “Aldehyde Dehydrogenase Inhibitors and Their Therapeutic Use” (priority 2020, published 2024)
# Molecular target: T1, ALDH1A3 (Homo sapiens, UniProt P47895)
# T1 sequence (P47895 1-512): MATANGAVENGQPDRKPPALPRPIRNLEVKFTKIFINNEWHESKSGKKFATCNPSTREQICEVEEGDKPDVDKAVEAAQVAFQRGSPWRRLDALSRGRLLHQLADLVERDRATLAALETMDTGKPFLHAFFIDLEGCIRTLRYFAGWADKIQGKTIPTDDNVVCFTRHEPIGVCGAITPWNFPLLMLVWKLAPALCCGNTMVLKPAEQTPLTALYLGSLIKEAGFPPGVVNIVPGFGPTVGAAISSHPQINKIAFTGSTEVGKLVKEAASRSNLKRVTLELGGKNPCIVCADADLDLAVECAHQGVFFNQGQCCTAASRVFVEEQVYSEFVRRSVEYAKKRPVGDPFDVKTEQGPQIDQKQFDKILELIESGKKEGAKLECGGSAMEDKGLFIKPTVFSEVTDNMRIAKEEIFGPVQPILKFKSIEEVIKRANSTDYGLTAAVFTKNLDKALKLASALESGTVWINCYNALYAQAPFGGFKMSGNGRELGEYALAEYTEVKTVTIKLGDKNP
# Experiment: ALDH1A3 cellular assay (ALDEFLUOR) in WM266.4 melanoma cells
# Format: cell-based
# Details: WM266.4 cells; 60 min incubation; percentage of ALDH-positive cells
# Text: Materials: WM266.4 cells were procured from ATCC. (WM266-4 is a metastatic human melanoma cell line.) The ALDEFLUOR™ Assay kit (cat. no. 01700) and Aldefluor buffer (cat. no. 01702) were procured from StemCell Technologies. Dulbecco's Modified Eagle Medium (DMEM), FluoroBrite DMEM, Glutamax and Hoechst 33342 were purchased from ThermoFisher. Verapamil was obtained from Fluorochem. FBS was obtained from Sigma. Echo Qualified 384-well low-dead-volume microplate and Echo Qualified 384-well polypropylene microplate were purchased from Labcyte, and the Microclear black sterile polystyrene microplate from Greiner Bio-One.
# Method: Intracellular inhibition of ALDH1A3 was assessed using the ALDEFLUOR™ Assay kit. The activated ALDEFLUOR™ reagent, BODIPY-aminoacetaldehyde (BAAA), is a fluorescent non-toxic substrate for ALDH enzymes, which freely diffuses into intact and viable cells. In the presence of ALDH enzyme activity, BAAA is converted into BODIPY-aminoacetate (BAA), which is retained inside the cells. The amount of fluorescent reaction product is proportional to the ALDH activity in the cells and is measured using an imaging cytometer. Active efflux of the reaction product is inhibited by an efflux inhibitor (Verapamil) in the ALDEFLUOR™ Assay Buffer.
# A frozen vial of cells was recovered into a T225 flask containing DMEM, high glucose, 10% FBS, 1% glutamax, 1% HEPES. The following day, media was changed and cells were ready for assay from 72 hours after recovery. Cells were transferred into FluoroBrite DMEM (plus 10% FBS, 1% glutamax and 1% HEPES) and diluted to 2.5×10^5 cells/mL. 30 μL of cells were added to each well to give 7500 cells/well and then incubated overnight at 37° C., 5% CO2. After overnight incubation, the media was aspirated and replaced by 20 μL substrate/Hoechst buffer solution. Each plate requires 9 mL of solution comprising, 9 mL ALDEFLUOR assay buffer, 18 μL BAAA substrate (final concentration 500 nM), 4.5 μL Hoechst 33342 (final concentration 5 μg/mL) and 4.5 μL Verapamil (final concentration 50 μM). Compounds were prepared for dosing using the Echo acoustic dispenser by aliquoting into a source plate and dosed directly onto the cell assay plate to give a 10 point dose response per compound ranging from 10 μM to 0.0005 μM final concentration in 3-fold dilution steps. Plates were then incubated for 60 minutes at 37° C., 5% CO2. The buffer was then aspirated and cells washed twice in ice-cold PBS. Plates were kept on ice and 30 μL of cold Aldefluor buffer with 50 μM verapamil dispensed per well. The plates were then imaged using the CellInsight fluorescent microscope. Hoechst fluorescence in the 405 nm channel indicated the nuclear area and this was used to define nuclei and then the surrounding cellular area. Fluorescence in the 488 nm channel of the defined cellular area indicates ALDH1A3 activity. The percentage of cells positive for ALDH activity was plotted versus compound concentration to generate EC50 values using curve fitting parameters defined in Dotmatics software.
row,SMILES,IC50
1,"CN(CCOc1ccc2c(c1)CCC(=O)N2)C(=O)c1cccc(F)c1 [ALDHI-3008, 3-fluoro-N-methyl-N-[2-[(2-oxo-3,4-dihydro-1H-quinolin-6-yl)oxy]ethyl]benzamide]",100 to 1000 nM
2,"O=C1CCc2cc(NC(=O)c3cncnc3-c3cccc(F)c3)ccc2N1 [ALDHI-1018, 4-(3-fluorophenyl)-N-(2-oxo-3,4-dihydro-1H-quinolin-6-yl)pyrimidine-5-carboxamide]",100 to 1000 nM
3,"Cc1cccc(C2CCCN2CCOc2ccc3c(c2)CCC(=O)N3)c1 (stereo not drawn) [ALDHI-2011, 6-[2-[2-(m-tolyl)pyrrolidin-1-yl]ethoxy]-3,4-dihydro-1H-quinolin-2-one]",1000 to 10000 nM
4,"Cc1ccc(C2CCCN2CCOc2ccc3c(c2)CCC(=O)N3)cc1 (stereo not drawn) [ALDHI-2010, 6-[2-[2-(p-tolyl)pyrrolidin-1-yl]ethoxy]-3,4-dihydro-1H-quinolin-2-one]",100 to 1000 nM
5,"O=C1CCc2cc(OCCN3CC(F)CC3c3cccc(F)c3)ccc2N1 (stereo not drawn) [ALDHI-2052, 6-[2-[4-fluoro-2-(3-fluorophenyl)pyrrolidin-1-yl]ethoxy]-3,4-dihydro-1H-quinolin-2-one]",< 100 nM
6,"O=C1CCc2cc(OCCN3CCCC3c3ccccc3)ccc2N1 (stereo not drawn) [ALDHI-2019, 6-[2-(2-phenylpyrrolidin-1-yl)ethoxy]-3,4-dihydro-1H-quinolin-2-one]",100 to 1000 nM
7,"CC1(C)Oc2cc(OCCN3CCCC3c3cccc(F)c3)ccc2NC1=O (stereo not drawn) [ALDHI-2043, 7-[2-[2-(3-fluorophenyl)pyrrolidin-1-yl]ethoxy]-2,2-dimethyl-4H-1,4-benzoxazin-3-one]",100 to 1000 nM
8,"O=C1COc2cc(NC(=O)c3scnc3-c3cccc(F)c3)ccc2N1 [ALDHI-1016, 4-(3-fluorophenyl)-N-(3-oxo-4H-1,4-benzoxazin-7-yl)thiazole-5-carboxamide]",< 100 nM
9,"CN(CCOc1ccc2c(c1)CCC(=O)N2)Cc1cccc(F)c1 [ALDHI-3001, 6-[2-[(3-fluorophenyl)methyl-methyl-amino]ethoxy]-3,4-dihydro-1H-quinolin-2-one]",100 to 1000 nM
10,"CN(CCOc1ccc2c(c1)CCC(=O)N2)C(=O)c1cccnc1 [ALDHI-3013, N-methyl-N-[2-[(2-oxo-3,4-dihydro-1H-quinolin-6-yl)oxy]ethyl]pyridine-3-carboxamide]",1000 to 10000 nM
11,"O=C1CCc2cc(NC(=O)c3scnc3-c3ccc(F)cc3)ccc2N1 [ALDHI-1017, 4-(4-fluorophenyl)-N-(2-oxo-1,2,3,4-tetrahydroquinolin-6-yl)thiazole-5-carboxamide]",100 to 1000 nM
12,"O=C1CCc2cc(OCCN3CCCC3c3ccccc3F)ccc2N1 (stereo not drawn) [ALDHI-2002, 6-[2-[2-(2-fluorophenyl)pyrrolidin-1-yl]ethoxy]-3,4-dihydro-1H-quinolin-2-one]",1000 to 10000 nM
13,"O=C1CSc2cc(OCCN3CCCC3c3cccnc3)ccc2N1 (stereo not drawn) [ALDHI-2028, 7-[2-[2-(3-pyridyl)pyrrolidin-1-yl]ethoxy]-4H-1,4-benzothiazin-3-one]",100 to 1000 nM
14,"O=C1CCc2cc(OCCN3CCOCC3c3cccc(F)c3)ccc2N1 (stereo not drawn) [ALDHI-2031, 6-[2-[3-(3-fluorophenyl)morpholin-4-yl]ethoxy]-3,4-dihydro-1H-quinolin-2-one]",< 100 nM
15,"O=C1CCc2cc(OCCN3C(=O)CCC3c3ccccc3)ccc2N1 (stereo not drawn) [ALDHI-2051, 6-[2-(2-oxo-5-phenyl-pyrrolidin-1-yl)ethoxy]-3,4-dihydro-1H-quinolin-2-one]",< 100 nM
16,"O=C1CSc2cc(OCCN3CCCC3c3ccncc3)ccc2N1 (stereo not drawn) [ALDHI-2029, 7-[2-[2-(4-pyridyl)pyrrolidin-1-yl]ethoxy]-4H-1,4-benzothiazin-3-one]",100 to 1000 nM
17,"O=C1CCc2cc(NC(=O)c3sc(N4CC(O)C4)nc3-c3cccc(F)c3)ccc2N1 [ALDHI-1004, 4-(3-fluorophenyl)-2-(3-hydroxyazetidin-1-yl)-N-(2-oxo-3,4-dihydro-1H-quinolin-6-yl)thiazole-5-carboxamide]",< 100 nM

row,SMILES,IC50
1,"Cc1ccccc1C1CCCN1CCOc1ccc2c(c1)CCC(=O)N2 (stereo not drawn) [ALDHI-2012, 6-[2-[2-(o-tolyl)pyrrolidin-1-yl]ethoxy]-3,4-dihydro-1H-quinolin-2-one]",1000 to 10000 nM
2,"C[C@H](c1ccccc1)N(CCO)CCOc1ccc2c(c1)CCC(=O)N2 [ALDHI-3006, 6-[2-[2-hydroxyethyl-[(1R)-1-phenylethyl]amino]ethoxy]-3,4-dihydro-1H-quinolin-2-one]",100 to 1000 nM
3,"O=C1CCc2cc(OCCN3CCCC3c3cc(F)cc(F)c3)ccc2N1 (stereo not drawn) [ALDHI-2032, 6-[2-[2-(3,5-difluorophenyl)pyrrolidin-1-yl]ethoxy]-3,4-dihydro-1H-quinolin-2-one]",< 100 nM
4,"CN(CCOc1ccc2c(c1)CCC(=O)N2)Cc1cccnc1 [ALDHI-3010, 6-[2-[methyl(3-pyridylmethyl)amino]ethoxy]-3,4-dihydro-1H-quinolin-2-one]",100 to 1000 nM
5,"O=C1CCc2cc(OCCn3nccc3-c3cccc(F)c3)ccc2N1 [ALDHI-2023, 6-[2-[5-(3-fluorophenyl)pyrazol-1-yl]ethoxy]-3,4-dihydro-1H-quinolin-2-one]",< 100 nM
6,"O=C1CCc2cc(NC(=O)c3ocnc3-c3cccc(F)c3)ccc2N1 [ALDHI-1019, 4-(3-fluorophenyl)-N-(2-oxo-3,4-dihydro-1H-quinolin-6-yl)oxazole-5-carboxamide]",1000 to 10000 nM
7,"O=C1CCc2cc(NC(=O)c3ncsc3-c3ccsc3)ccc2N1 [ALDHI-1011, N-(2-oxo-3,4-dihydro-1H-quinolin-6-yl)-5-(3-thienyl)thiazole-4-carboxamide]",1000 to 10000 nM
8,"O=C1CCc2cc(NC(=O)c3scnc3-c3cccs3)ccc2N1 [ALDHI-1023, N-(2-oxo-3,4-dihydro-1H-quinolin-6-yl)-4-(2-thienyl)thiazole-5-carboxamide]",< 100 nM
9,"O=C1CCc2cc(OCCN3CC(F)(F)CC3c3cccc(F)c3)ccc2N1 (stereo not drawn) [ALDHI-2053, 6-[2-[4,4-difluoro-2-(3-fluorophenyl)pyrrolidin-1-yl]ethoxy]-3,4-dihydro-1H-quinolin-2-one]",< 100 nM
10,"Cc1noc(-c2ccccc2C(=O)Nc2ccc3c(c2)CCC(=O)N3)n1 [ALDHI-1008, 2-(3-methyl-1,2,4-oxadiazol-5-yl)-N-(2-oxo-1,2,3,4-tetrahydroquinolin-6-yl)benzamide]",100 to 1000 nM
11,"CCN(CC)CCN(CCOc1ccc2c(c1)CCC(=O)N2)Cc1ccccc1 [ALDHI-3004, 6-[2-[benzyl-[2-(diethylamino)ethyl]amino]ethoxy]-3,4-dihydro-1H-quinolin-2-one]",< 100 nM
12,"O=C1CCc2cc(OCCN(CCO)Cc3cccnc3)ccc2N1 [ALDHI-3005, 6-[2-[2-hydroxyethyl(3-pyridylmethyl)amino]ethoxy]-3,4-dihydro-1H-quinolin-2-one]",100 to 1000 nM
13,"O=C1CSc2cc(OCCN3CCCC3c3ccccn3)ccc2N1 (stereo not drawn) [ALDHI-2027, 7-[2-[2-(2-pyridyl)pyrrolidin-1-yl]ethoxy]-4H-1,4-benzothiazin-3-one]",1000 to 10000 nM
14,"O=C1CCc2cc(OCCN3CCCC3c3ccncc3)ccc2N1 (stereo not drawn) [ALDHI-2004, 6-[2-[2-(4-pyridyl)pyrrolidin-1-yl]ethoxy]-3,4-dihydro-1H-quinolin-2-one]",1000 to 10000 nM
15,"COc1cccc(C2CCCN2CCOc2ccc3c(c2)CCC(=O)N3)c1 (stereo not drawn) [ALDHI-2034, 6-[2-[2-(3-methoxyphenyl)pyrrolidin-1-yl]ethoxy]-3,4-dihydro-1H-quinolin-2-one]",1000 to 10000 nM
16,"CCn1cc(C2CCCN2CCOc2ccc3c(c2)CCC(=O)N3)cn1 (stereo not drawn) [ALDHI-2016, 6-[2-[2-(1-ethylpyrazol-4-yl)pyrrolidin-1-yl]ethoxy]-3,4-dihydro-1H-quinolin-2-one]",1000 to 10000 nM
